Test results published in patent US10723765B2, “Beta-hairpin peptidomimetics as selective elastase inhibitors” (POLYPHOR AG, priority 2013, dated 2020).
Non-standard residues stand in square brackets, D forms with d. Residues, ends and D or L forms follow the SMILES beside them. Gly(octyl) = CCCCCCCC[C@H](N)C(=O)O; hTyr = N[C@@H](CCc1ccc(O)cc1)C(=O)O; hArg = N=C(N)NCCCC[C@H](N)C(=O)O; Aad = N[C@@H](CCCC(=O)O)C(=O)O

Columns and labels:
Assay type in all cases: biochemical
[1] = target: T1, human neutrophil elastase (Homo sapiens, UniProt P08246); assay: Inhibition of human neutrophil elastase (MeOSuc-AAPV-pNA hydrolysis); conditions: 10 nM enzyme, 0.3 mM substrate, 37° C., pH 8; read-out: Human neutrophil elastase (hNE) IC50
T1 construct: purchased Serva Electrophoresis, Germany
T1 sequence (P08246 30-267): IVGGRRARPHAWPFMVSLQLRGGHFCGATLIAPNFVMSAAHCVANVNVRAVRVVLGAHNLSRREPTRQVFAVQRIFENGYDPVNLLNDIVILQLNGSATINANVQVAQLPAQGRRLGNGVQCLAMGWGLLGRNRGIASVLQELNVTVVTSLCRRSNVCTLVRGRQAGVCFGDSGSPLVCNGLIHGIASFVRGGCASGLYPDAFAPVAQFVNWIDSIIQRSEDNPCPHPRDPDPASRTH
Description: 2.2. Inhibition of Human Neutrophil Elastase
The ability of the peptides of the invention to inhibit the hydrolysis activity of human neutrophil elastase (Serva Electrophoresis, Germany) using the synthetic tetrapeptidic substrate MeOSuc-AAPV-pNA (Bachem, Switzerland) was determined as follows:
(§1) The above substrate (0.3 mM) and human neutrophil elastase (10 nM) were incubated at 37° C. with serial dilutions of the peptides (1% DMSO final) in assay buffer (50 mM Tris, pH 8, 300 mM NaCl, 0.01% Tween20). The release of pNA was followed by monitoring the change in absorbance at 405 nm for 30 minutes. Control assays with the same assay set-up as above, but without peptide, ran linearly. The dose-response data were fitted to the 4-parameter Hill equation providing the IC50 value using Graphpad (Prism 5).

[2] = target: T2, porcine pancreatic elastase (Sus scrofa, UniProt P00772); assay: Inhibition of porcine pancreatic elastase (MeOSuc-AAA-pNA hydrolysis); conditions: for IC50: 15 nM enzyme, 1 mM substrate, 37° C., pH8, read-out: Porcine pancreatic elastase (PPE) IC50; for hNE/PPE selectivity: ratio of PPE IC50 to hNE IC50
T2 construct: purchased Sigma, USA
T2 sequence (P00772 27-266): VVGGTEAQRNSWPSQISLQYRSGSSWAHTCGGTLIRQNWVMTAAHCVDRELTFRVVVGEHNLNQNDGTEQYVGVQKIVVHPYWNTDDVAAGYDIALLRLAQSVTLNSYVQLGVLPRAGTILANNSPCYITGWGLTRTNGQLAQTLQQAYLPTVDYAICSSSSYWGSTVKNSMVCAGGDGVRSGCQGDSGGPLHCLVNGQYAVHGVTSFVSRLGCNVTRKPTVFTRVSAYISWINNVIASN
Description: 2.3. Inhibition of Porcine Pancreatic Elastase
The ability of the peptides of the invention to inhibit the hydrolysis activity of porcine pancreatic elastase (Sigma, USA) using the synthetic tripeptidic substrate MeOSuc-AAA-pNA (Bachem, Switzerland) was determined as follows:
as §1, with “(1” for “(0.3”, “porcine pancreatic” for “neutrophil”, “(15” for “(10”, “(0.5%” for “(1%”, “pH8, 100” for “pH 8, 300”

human proteinase 3 = target: T3, human proteinase 3 (Homo sapiens, UniProt P24158); assay: Inhibition of human proteinase 3 (Boc-Ala-Ala-Nva-SBzl); conditions: for IC50: 10 nM enzyme, 1 mM substrate, 37° C., pH7.4, read-out: Human proteinase 3 (hPr3) IC50; for hNE/hPr3 selectivity: ratio of hPr3 IC50 to hNE IC50
T3 construct: purchased Elastin Products Company, USA
T3 sequence (P24158 28-248): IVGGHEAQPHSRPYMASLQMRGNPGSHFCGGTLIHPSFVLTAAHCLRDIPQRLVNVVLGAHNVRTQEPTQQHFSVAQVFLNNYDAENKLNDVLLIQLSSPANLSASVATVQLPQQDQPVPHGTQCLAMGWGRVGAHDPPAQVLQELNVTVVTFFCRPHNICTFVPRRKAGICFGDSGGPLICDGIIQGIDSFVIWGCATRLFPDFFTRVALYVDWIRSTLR
Description: 2.4. Inhibition of Human Proteinase 3
The inactivation of human proteinase 3 (Elastin Products Company, USA) by the peptides of the invention using synthetic tripeptidic substrate Boc-Ala-Ala-Nva-SBzl (Elastin Products Company, USA) was determined as follows:
as §1, with “(1 mM), 4,4′-dithiodipyridine (250 μM)” for “(0.3 mM)”, “proteinase 3” for “neutrophil elastase”, “(0.5%” for “(1%”, “pH7.4, 150” for “pH 8, 300”, “reaction process” for “release of pNA”, “340” for “405”

| Structure (SMILES) | IC50 [1] | IC50 [2] | hNE/PPE selectivity [2] | IC50 (human proteinase 3) | hNE/hPr3 selectivity (human proteinase 3) |
| --- | --- | --- | --- | --- | --- |
| CC[C@H](C)[C@@H]1NC(=O)[C@H](CO)NC(=O)[C@H](C)NC(=O)[C@H]([C@@H](C)O)NC(=O)[C@H](CCC(=O)O)NC(=O)[C@H](CCCCNC(=N)N)NC(=O)[C@@H]2CCCN2C(=O)[C@H]2CCCN2C(=O)[C@H]([C@@H](C)O)NC(=O)[C@H](CCCCN)NC(=O)[C@H](CCC(N)=O)NC(=O)[C@@H]2CCCN2C(=O)[C@@H]2CCCN2C1=O [Example 9, Cyclo(-hArg-Glu-Thr-Ala-Ser-Ile-Pro-Pro-Gln-Lys-Thr-^DPro-Pro-)] (cyclo([hArg]ETASIPPQKT[dP]P)) | 23.7 nM | 83400 nM | 3519 | 70100 nM | 2958 |
| CCCCCCCC[C@@H]1NC(=O)[C@@H]2CCCN2C(=O)[C@H]2CCCN2C(=O)[C@H]([C@@H](C)O)NC(=O)[C@H](CCCCN)NC(=O)[C@H](Cc2ccc(O)cc2)NC(=O)[C@@H]2CCCN2C(=O)[C@@H]2CCCN2C(=O)[C@H]([C@@H](C)CC)NC(=O)[C@H](CO)NC(=O)[C@H](C)NC(=O)[C@H]([C@@H](C)O)NC(=O)[C@H](CCC(=O)O)NC1=O [Example 2, Cyclo(-OctGly-Glu-Thr-Ala-Ser-Ile-Pro-Pro-Tyr-Lys-Thr-^DPro-Pro-)] (cyclo([Gly(octyl)]ETASIPPYKT[dP]P)) | 5.4 nM | 530 nM | 98 | 1520 nM | 282 |
| CC[C@H](C)[C@@H]1NC(=O)[C@H](CO)NC(=O)[C@H](C)NC(=O)[C@H]([C@@H](C)O)NC(=O)[C@H](CCC(=O)O)NC(=O)[C@H](CCCNC(=N)N)NC(=O)[C@@H]2CCCN2C(=O)[C@H]2CCCN2C(=O)[C@H](CCCC(N)=O)NC(=O)[C@H](CCCCN)NC(=O)[C@H](Cc2ccc(O)cc2)NC(=O)[C@@H]2CCCN2C(=O)[C@@H]2CCCN2C1=O [Example 12, Cyclo(-Arg-Glu-Thr-Ala-Ser-Ile-Pro-Pro-Tyr-Lys-hGln-^DPro-Pro-)] (cyclo(RETASIPPYK[Aad](NH2)[dP]P)) | 10 nM | > 100000 nM | >10000 | > 100000 nM | >10000 |
| CC[C@H](C)[C@@H]1NC(=O)[C@H](CO)NC(=O)[C@H](C)NC(=O)[C@H]([C@@H](C)O)NC(=O)[C@H](C(C)C)NC(=O)[C@H](CCCNC(=N)N)NC(=O)[C@@H]2CCCN2C(=O)[C@H]2CCCN2C(=O)[C@H](Cc2ccc(O)cc2)NC(=O)[C@H](CCCCN)NC(=O)[C@H](CCC(N)=O)NC(=O)[C@@H]2CCCN2C(=O)[C@@H]2CCCN2C1=O [Example 18, Cyclo(-Arg-Val-Thr-Ala-Ser-Ile-Pro-Pro-Gln-Lys-Tyr-^DPro-Pro-)] (cyclo(RVTASIPPQKY[dP]P)) | 6.9 nM | 7200 nM | 1043 | 1800 nM | 261 |
| CC[C@H](C)[C@@H]1NC(=O)[C@H](CO)NC(=O)[C@H](C)NC(=O)[C@H]([C@@H](C)O)NC(=O)[C@H](CCC(=O)O)NC(=O)[C@H](CCCNC(=N)N)NC(=O)[C@@H]2CCCN2C(=O)[C@H]2CCCN2C(=O)[C@H](CO)NC(=O)[C@H](CCCCN)NC(=O)[C@H](Cc2ccc(O)cc2)NC(=O)[C@@H]2CCCN2C(=O)[C@@H]2CCCN2C1=O [Example 8, Cyclo(-Arg-Glu-Thr-Ala-Ser-Ile-Pro-Pro-Tyr-Lys-Ser-^DPro-Pro-)] (cyclo(RETASIPPYKS[dP]P)) | 16.4 nM | 45200 nM | 2756 | 88100 nM | 5372 |
| CC[C@H](C)[C@@H]1NC(=O)[C@H](CO)NC(=O)[C@H](C)NC(=O)[C@H]([C@@H](C)O)NC(=O)[C@H](CCC(=O)O)NC(=O)[C@H](CCCNC(=N)N)NC(=O)[C@@H]2CCCN2C(=O)[C@H]2CCCN2C(=O)[C@H](Cc2c[nH]cn2)NC(=O)[C@H](CCCCN)NC(=O)[C@H](Cc2ccc(O)cc2)NC(=O)[C@@H]2CCCN2C(=O)[C@@H]2CCCN2C1=O [Example 14, Cyclo(-Arg-Glu-Thr-Ala-Ser-Ile-Pro-Pro-Tyr-Lys-His-^DPro-Pro-)] (cyclo(RETASIPPYKH[dP]P)) | 20.3 nM | 4650 nM | 229 | 77600 nM | 3823 |
| CC[C@H](C)[C@@H]1NC(=O)[C@H](CO)NC(=O)[C@H](C)NC(=O)[C@H]([C@@H](C)O)NC(=O)[C@H](CCc2ccc(O)cc2)NC(=O)[C@H](CCCNC(=N)N)NC(=O)[C@@H]2CCCN2C(=O)[C@H]2CCCN2C(=O)[C@H]([C@@H](C)O)NC(=O)[C@H](CCCCN)NC(=O)[C@H](CCC(N)=O)NC(=O)[C@@H]2CCCN2C(=O)[C@@H]2CCCN2C1=O [Example 17, Cyclo(-Arg-hTyr-Thr-Ala-Ser-Ile-Pro-Pro-Gln-Lys-Thr-^DPro-Pro-)] (cyclo(R[hTyr]TASIPPQKT[dP]P)) | 15.6 nM | 66400 nM | 4256 | 83900 nM | 5378 |
| CCCCCCCC[C@@H]1NC(=O)[C@@H]2CCCN2C(=O)[C@H]2CCCN2C(=O)[C@H](CC(N)=O)NC(=O)[C@H](CCCCN)NC(=O)[C@H](CCC(N)=O)NC(=O)[C@@H]2CCCN2C(=O)[C@@H]2CCCN2C(=O)[C@H]([C@@H](C)CC)NC(=O)[C@H](CO)NC(=O)[C@H](C)NC(=O)[C@H]([C@@H](C)O)NC(=O)[C@H](CCC(=O)O)NC1=O [Example 1, Cyclo(-OctGly-Glu-Thr-Ala-Ser-Ile-Pro-Pro-Gln-Lys-Asn-^DPro-Pro-)] (cyclo([Gly(octyl)]ETASIPPQKN[dP]P)) | 5.3 nM | 1550 nM | 292 | 1810 nM | 342 |
